Data taken from US9795140B2, “Molecules having pesticidal utility, and intermediates, compositions, and processes, related thereto” (priority 2015, dated 2017).

Key:
Format in all cases: in vivo
[1] = tested on: Beet Armyworm (Spodoptera exigua, LAPHEG); assay: Bioassay on Beet Armyworm (BAW), 128-well diet tray assay; settings: 168 h, 50 μg/cm^2 on artificial diet, second instar larvae, 25° C., five to seven days, average of eight wells, read-out: BAW % Control (or Mortality) rating
How it was run: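 Artificial diet surface-treated with 50 μg/cm^2 test molecule in 90:10 acetone-water, dried, then infested with one to five second instar larvae per well. Held covered and vented at 25° C., 14:10 light-dark for five to seven days; percent mortality recorded per well and averaged over eight wells.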

[2] = tested on: Cabbage Looper (Trichoplusia ni, TRIPNI); assay: Bioassay on Cabbage Looper (CL), 128-well diet tray assay; settings: 168 h, 50 μg/cm^2 on artificial diet, second instar larvae, 25° C., five to seven days, average of eight wells, read-out: CL % Control (or Mortality) rating
How it was run: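 Second-instar T. ni larvae (one to five per well) were placed on artificial diet treated with 50 μg/cm^2 compound, applied in 90:10 acetone-water and dried. Trays were held five to seven days at 25 °C under 14:10 light-dark. Percent mortality per well was averaged over eight wells.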

[3] = tested on: Green Peach Aphid (Myzus persicae, MYZUPE); assay: Bioassay on Green Peach Aphid (GPA), foliar spray on cabbage seedlings; settings: 72 h, 200 ppm spray on infested cabbage seedlings, three days, Abbott corrected % control, read-out: GPA % Control (or Mortality) rating
Protocol: Certain molecules disclosed in this document were tested against GPA using procedures described in the following example. In the reporting of the results, the “GPA & YFM Rating Table” was used (See Table Section).
Cabbage seedlings grown in 3-inch pots, with 2-3 small (3-5 cm) true leaves, were used as test substrate. The seedlings were infested with 20-50 GPA (wingless adult and nymph stages) one day prior to chemical application. Four pots with individual seedlings were used for each treatment. Test molecules (2 mg) were dissolved in 2 mL of acetone/methanol (1:1) solvent, forming stock solutions of 1000 ppm test molecule. The stock solutions were diluted 5× with 0.025% Tween 20 in water to obtain the solution at 200 ppm test molecule. A hand-held aspirator-type sprayer was used for spraying a solution to both sides of […] leaves until runoff. Reference plants (solvent check) were sprayed with the diluent only containing 20% by volume of acetone/methanol (1:1) solvent. Treated plants were held in a holding room for three days at approximately 25° C. and ambient relative humidity (RH) prior to grading. Evaluation was conducted by counting the number of live aphids per plant under a microscope. Percent control was measured using Abbott's correction formula (W. S. Abbott, “A Method of Computing the Effectiveness of an Insecticide” J. Econ. Entomol. 18 (1925), pp. 265-267) as follows. Corrected % Control=100*(X−Y)/X where X=No. of live aphids on solvent check plants and Y=No. of live aphids on treated plants. The results are indicated in the table entitled “Table ABC: Biological Results” (See Table Section).

[4] = tested on: Yellow Fever Mosquito (Aedes aegypti, AEDSAE); assay: Bioassay on Yellow Fever Mosquito (YFM) larvae, 96-well plate; settings: about 1 day-old larvae, room temperature, 3 days, scored on mortality
How it was run: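 Compound stocks at 4000 ppm in DMSO were diluted with 90:10 water/acetone, and 15 μL aliquots were dispensed into six replicate plates. About 1-day-old larvae in liver-powder water were added per well. Plates were covered and held at room temperature for 3 days before each well was scored for mortality.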

| SMILES | mortality at 50 µg/cm2 [1] [%] | mortality at 50 µg/cm2 [2] [%] | mortality at 200 ppm [3] [%] | YFM % Control (or Mortality) rating [4] |
| --- | --- | --- | --- | --- |
| CC(C)(C)c1ccc(CNC(=O)c2cc(NC(=O)C3C(c4cc(Cl)cc(Cl)c4)C3(Cl)Cl)ccc2Cl)cc1 (stereo not drawn) [F36, trans-N-(4-(tert-Butylbenzyl)-2-chloro-5-(2,2-dichloro-3-(3,5-dichlorophenyl)cyclopropane-1-carboxamido)benzamide] | 0 | 0 | 0 | B (More than 0-Less than 80) |
| O=C(NCc1ccc(F)cc1)c1cc(NC(=O)[C@H]2[C@H](c3cc(Cl)cc(Cl)c3)C2(Cl)Cl)ccc1Cl (relative stereo) [F28, trans-2-Chloro-5-(2,2-dichloro-3-(3,5-dichlorophenyl)cyclopropane-1-carboxamido)-N-(4-fluorobenzyl)benzamide] | 50 to 100 | 50 to 100 | 80 to 100 | A (80-100) |
| O=C(NOCC1CC1(F)F)c1cc(NC(=O)C2C(c3ccc(Cl)c(Cl)c3)C2(Cl)Cl)ccc1Cl (stereo not drawn) [F22, trans-N-2-Chloro-5-(2,2-dichloro-3-(3,4-dichlorophenyl)cyclopropane-1-carboxamido)-N-((2,2-difluorocyclopropyl)methoxy)benzamide] | 50 to 100 | 50 to 100 | 80 to 100 | B (More than 0-Less than 80) |
| CCCCCCNC(=O)c1cc(NC(=O)[C@H]2[C@H](c3cc(Cl)cc(Cl)c3)C2(Cl)Cl)ccc1Cl (relative stereo) [F31, trans-2-Chloro-5-(2,2-dichloro-3-(3,5-dichlorophenyl)cyclopropane-1-carboxamido)-N-hexylbenzamide] | 50 to 100 | 50 to 100 | 0 to 80 | B (More than 0-Less than 80) |
| O=C(NCCC(F)(F)F)c1cc(NC(=O)[C@H]2[C@H](c3cc(Cl)cc(Cl)c3)C2(Cl)Cl)ccc1Cl (relative stereo) [F40, trans-2-Chloro-5-(2,2-dichloro-3-(3,5-dichlorophenyl)cyclopropane-1-carboxamido)-N-(3,3,3-trifluoropropyl)benzamide] | 50 to 100 | 50 to 100 | 80 to 100 | A (80-100) |
| O=C(NOCC1CC1)c1cc(NC(=O)C2C(c3cc(Cl)cc(Cl)c3)C2(Cl)Cl)ccc1Cl (stereo not drawn) [F16, trans-N-2-Chloro-N-(cyclopropylmethoxy)-5-(2,2-dichloro-3-(3,5-dichlorophenyl)cyclopropane-1-carboxamido)benzamide] | 50 to 100 | 50 to 100 | 0 to 80 | A (80-100) |
| O=C(NCCCF)c1cc(NC(=O)[C@H]2[C@H](c3cc(Cl)cc(Cl)c3)C2(Cl)Cl)ccc1Cl (relative stereo) [F44, trans-2-Chloro-5-(2,2-dichloro-3-(3,5-dichlorophenyl)cyclopropane-1-carboxamido)-N-(3-fluoropropyl)benzamide] | 50 to 100 | 50 to 100 | 80 to 100 | A (80-100) |
| O=C(NOCC1CC1(F)F)c1cc(NC(=O)C2C(c3cc(Cl)c(Cl)c(Cl)c3)C2(Cl)Cl)ccc1Cl (stereo not drawn) [F23, trans-N-2-Chloro-5-(2,2-dichloro-3-(3,4,5-trichlorophenyl)cyclopropane-1-carboxamido)-N-((2,2-difluorocyclopropyl)methoxy)benzamide] | 50 to 100 | 50 to 100 | 80 to 100 | B (More than 0-Less than 80) |
| O=C(NCc1ccc(F)c(F)c1)c1cc(NC(=O)[C@H]2[C@H](c3cc(Cl)cc(Cl)c3)C2(Cl)Cl)ccc1Cl (relative stereo) [F32, trans-2-Chloro-5-(2,2-dichloro-3-(3,5-dichlorophenyl)cyclopropane-1-carboxamido)-N-(3,4-difluorobenzyl)benzamide] | 50 to 100 | 50 to 100 | 0 to 80 | A (80-100) |
| O=C(NOCC1CC1)c1cc(NC(=O)C2C(c3cc(Cl)c(Cl)c(Cl)c3)C2(Cl)Cl)ccc1Cl (stereo not drawn) [F15, trans-N-2-Chloro-N-(cyclopropylmethoxy)-5-(2,2-dichloro-3-(3,4,5-trichlorophenyl)cyclopropane-1-carboxamido)benzamide] | 50 to 100 | 50 to 100 | 80 to 100 | A (80-100) |
| CC(C)(CS(C)(=O)=O)NC(=O)c1cc(NC(=O)[C@H]2[C@H](c3cc(Cl)cc(Cl)c3)C2(Cl)Cl)ccc1Cl (relative stereo) [F42, trans-2-Chloro-5-(2,2-dichloro-3-(3,5-dichlorophenyl)cyclopropane-1-carboxamido)-N-(2-methyl-1-(methylsulfonyl)propan-2-yl)benzamide] | 50 to 100 | 50 to 100 | 0 to 80 | A (80-100) |
| O=C(NCCc1ccc(F)cc1)c1cc(NC(=O)C2C(c3cc(Cl)cc(Cl)c3)C2(Cl)Cl)ccc1Cl (stereo not drawn) [F19, trans-N-2-Chloro-5-(2,2-dichloro-3-(3,5-dichlorophenyl)cyclopropane-1-carboxamido)-N-(4-fluorophenethyl)benzamide] | 50 to 100 | 50 to 100 | 0 to 80 | A (80-100) |
| CC(=O)NCCNC(=O)c1cc(NC(=O)[C@H]2[C@H](c3cc(Cl)cc(Cl)c3)C2(Cl)Cl)ccc1Cl (relative stereo) [F55, trans-N-(2-Acetamidoethyl)-2-chloro-5-(2,2-dichloro-3-(3,5-dichlorophenyl)cyclopropane-1-carboxamido)benzamide] | 50 to 100 | 50 to 100 | 80 to 100 | B (More than 0-Less than 80) |
| CCCCCNC(=O)c1cc(NC(=O)[C@H]2[C@H](c3cc(Cl)cc(Cl)c3)C2(Cl)Cl)ccc1Cl (relative stereo) [F33, trans-2-Chloro-5-(2,2-dichloro-3-(3,5-dichlorophenyl)cyclopropane-1-carboxamido)-N-pentylbenzamide] | 50 to 100 | 50 to 100 | 0 to 80 | A (80-100) |
| O=C(NCc1cccnc1)c1cc(NC(=O)[C@H]2[C@H](c3cc(Cl)cc(Cl)c3)C2(Cl)Cl)ccc1Cl (relative stereo) [F6, trans-2-Chloro-5-(2,2-dichloro-3-(3,5-dichlorophenyl)cyclopropane-1-carboxamido)-N-(pyridin-3-ylmethyl)benzamide] | 50 to 100 | 50 to 100 | 0 to 80 | A (80-100) |
| O=C(NCC(F)(F)C(F)(F)F)c1cc(NC(=O)[C@H]2[C@H](c3cc(Cl)cc(Cl)c3)C2(Cl)Cl)ccc1Cl (relative stereo) [F49, trans-2-Chloro-5-(2,2-dichloro-3-(3,5-dichlorophenyl)cyclopropane-1-carboxamido)-N-(2,2,3,3,3-pentafluoropropyl)benzamide] | 50 to 100 | 50 to 100 | 80 to 100 | A (80-100) |
